Laboratory results as given in patent publication US4387105A, “Methods of treating atherosclerosis with dialkylureas and dialkylthioureas” (priority 1982, dated 1983).

Experiments:
[1] = tested on: cholesterol absorption; settings: po, 0.03 % of diet, 336 h
Method: Inhibition of cholesterol absorption was determined by feeding male Sprague-Dawley rats, weighing 150-170 g., a 1% cholesterol:0.5% cholic acid diet for 2 weeks. The diet also contained compounds being tested at a dose of 0.03% of the diet. Control rats were fed the same diet without any compound. At the end of the test the rats were sacrificed by decapitation. […] Livers are removed, a 0.4 g sample is taken from the center of the large lobe, and the sample is subjected to saponification using 25% saturated potassium hydroxide in ethanol. The resulting neutral sterols are extracted with petroleum ether and extract analyzed for cholesterol. The effectiveness of the compound in inhibiting cholesterol absorption is measured by the lowering of either serum cholesterol or liver cholesterol relative the values for control rats.

[2] = biological target: T1, fatty acyl CoA:cholesterol acyl transferase (ACAT) (Rattus norvegicus, UniProt O70536); experiment: Inhibition of ACAT in rat adrenal microsomal supernatant (14C-oleoyl CoA, cholesteryl ester counted); type: biochemical; set-up: dose or concentration left out as unconfirmed; settings: vs control without compound
T1 construct: The supernatant, containing the microsomal fraction, served as the source of the cholesterol-esterifying enzyme; from tissue; host or cells: rat adrenals (1000 x g supernatant containing the microsomal fraction)
T1 sequence (O70536 1-545): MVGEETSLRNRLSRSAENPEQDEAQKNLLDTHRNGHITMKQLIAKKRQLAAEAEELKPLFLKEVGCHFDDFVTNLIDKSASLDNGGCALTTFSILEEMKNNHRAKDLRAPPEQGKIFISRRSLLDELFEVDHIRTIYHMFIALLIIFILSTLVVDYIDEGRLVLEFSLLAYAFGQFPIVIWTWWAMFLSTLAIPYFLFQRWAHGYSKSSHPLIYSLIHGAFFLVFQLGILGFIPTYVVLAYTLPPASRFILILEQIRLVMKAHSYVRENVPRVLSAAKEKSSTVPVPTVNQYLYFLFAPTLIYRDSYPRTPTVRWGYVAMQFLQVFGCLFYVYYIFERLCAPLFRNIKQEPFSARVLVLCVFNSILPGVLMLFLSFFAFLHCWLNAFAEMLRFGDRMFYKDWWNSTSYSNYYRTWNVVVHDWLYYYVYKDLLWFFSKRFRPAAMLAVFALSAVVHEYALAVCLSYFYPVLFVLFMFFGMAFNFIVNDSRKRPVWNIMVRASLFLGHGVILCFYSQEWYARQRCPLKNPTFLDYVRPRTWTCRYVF
Method: The compounds of the present invention were assayed for two types of biological activity related to their potential use as antiatherosclerotic agents. Compounds were tested in vitro for the ability to inhibit the enzyme fatty acyl CoA:cholesterol acyl transferase (ACAT) and in vivo for serum hypolipidemic activity as measured by their ability to inhibit lipid absorption in rats. The compounds were tested for their ability to inhibit ACAT according to the following procedure:
Rat adrenals were homogenized in 0.2 M monobasic potassium phosphate buffer, pH 7.4, and centrifuged at 1000 times gravity for 15 minutes at 5° C. The supernatant, containing the microsomal fraction, served as the source of the cholesterol-esterifying enzyme, fatty acyl CoA:cholesterol acyl transferase (ACAT). A mixture comprising 50 parts of adrenal supernatant, 10 parts of albumin (BSA) (50 mg./ml.), 3 parts of test compound (final concentration […].) and 500 parts of buffer was preincubated at 37° C. for 10 minutes. After treatment with 20 parts of oleoyl CoA(^14 C-[…]) the mixture was incubated at 37° C. for 10 minutes. A control mixture, omitting the test compound, was prepared and treated in the same manner. The lipids from the incubation mixture were extracted into an organic solvent and separated by thin-layer chromatography. The cholesteryl ester fraction was counted in a scintillation counter. This procedure is a modification of that described by Hashimoto, et al., Life Scie., 12 (Part II), 1-12 (1973).

[3] = tested on: cholesterol absorption; experiment: Inhibition of cholesterol absorption in cholesterol/cholic acid fed rats given [4-14C] cholesterol by gavage (fecal 14C sterols); type: in vivo, male Sprague-Dawley rats; set-up: key: Active: A compound is considered active in inhibiting cholesterol absorption if it meets at least the first two criteria; settings: 0.01% to 0.1% of the diet for 2 weeks; [4-14C] cholesterol plus 2 mg. test compound by gavage after 9 days; feces collected 5 days
Method: Inhibition of cholesterol absorption also was determined by feeding male Sprague-Dawley rats, weighing 150-170 g., a 1% cholesterol:0.5% cholic acid diet for 2 weeks. The diet also contained compounds being tested at doses of between 0.01% and 0.1% of the diet. After the rats had been on the test diet for 9 days each rat is given by gavage a sonicated mixture of [4-^14 C] cholesterol (6μCi), 0.2 ml. triolein, 10 mg. cholic acid, 20 mg. cholesterol and 2 mg. of test compound in 0.8 ml. of 10% non-fat dry milk. Feces were collected for each 24 hour period for the remaining 5 days during which the rats were maintained on the 1% cholesterol:0.5% cholic acid plus test compound diet. Fecal ^14 C-neutral sterols were extracted with petroleum ether from saponified feces by the method of Grundy, S. M., et al., J. Lipid Res., 6, 397 (1965) and counted in a scintillation counter. Acidic sterols (bile acids) were extracted by acidifying the saponified feces and extracting in chloroform:methanol (2:1) and counting the chloroform phase in a scintillation counter. Total extraction of radioactivity (98-100%) from saponified feces is realized by this procedure.
Radioactivity in liver and adrenals were determined by saponification and extraction into petroleum ether and counting by scintillation techniques. Total cholesterol in liver and adrenals was determined by the cholorimetric melthod of Zlatkis, A., et al., J. Lab. Clin. Med., 41, 486 (1953) on saponified-organic solvent extracted tissue prepared by the method of Trinder, P., Analyst, 77, 321 (1952). Serum cholesterol and triglycerides were assayed enzymaticaly by the method of Allain, C. C., et al., Clin. Chem., 20, 470 (1974) on a Centrifichem 400 Analyzer. ^14 C-Cholesterol in serum was determined by direct scintillation counting.
The effect of test compounds on cholesterol absorption was determined by:
1. increase in excreted ^14 C-neutral sterol
2. decrease in excreted ^14 C-acidic sterol
3. decrease in ^14 C-cholesterol or ^14 C-cholesteryl ester in the liver
4. decrease in ^14 C-cholesterol or ^14 C-cholesteryl ester in the serum. […]

Row | % Inhibition [2] [%] | SMILES | Result (inhibition of cholesterol absorption: lowering of either serum cholesterol or liver cholesterol relative to control rats) [1] | Result (inhibition of cholesterol absorption: increase in excreted 14C-neutral sterol and decrease in excreted 14C-acidic sterol) [3]
1 | 64.0 | CCCCCCCCCCN(CCCCCCCCCC)C(=O)Nc1ccc(C)cc1C [1,1-Di-(n-decyl)-3-(2,4-dimethylphenyl)urea] | Active | –
2 | 88.7 | Cc1ccc(NC(=O)N(CCC(C)C)CCC(C)C)c(C)c1 [1,1-Di-(n-isopentyl)-3-(2,4-dimethylphenyl)urea] | Active | –
3 | 83.5 | CCCCN(CCCC)C(=O)Nc1cc(C)cc(C)c1 [1,1-Di-(n-butyl)-3-(3,5-dimethylphenyl)urea] | Active | –
4 | 90.3 | CCCCCN(CCCCC)C(=O)Nc1ccc(C)cc1C [1,1-Di-(n-pentyl)-3-(2,4-dimethylphenyl)urea] | Active | Active
5 | 93.5 | CCCCc1ccc(NC(=O)N(CCCC)CCCC)cc1 [1,1-di-(n-butyl)-3-(4-n-butylphenyl)urea, 1,1-Di-(n-butyl)-3-(4-n-butylphenyl)urea] | Active | –
6 | 81.1 | CCCCN(CCCC)C(=O)Nc1ccc(C)cc1C [1,1-Di-(n-butyl)-3-(2,4-dimethylphenyl)urea] | Active | Active
7 | 61.8 | CCCCN(CCCC)C(=O)Nc1ccccc1C [1,1-di-(n-butyl)-3-(2-methylphenyl)urea, 1,1-Di-(n-butyl)-3-(2-methylphenyl)urea] | Active | –
8 | 95.1 | CCCCCCN(CCCCCC)C(=O)Nc1ccc(C)cc1C [1,1-Di-(n-hexyl)-3-(2,4-dimethylphenyl)urea] | Active | Active
9 | 80.2 | CCCCN(CCCC)C(=O)Nc1cccc(Cl)c1C [1,1-Di-(n-butyl)-3-(3-chloro-2-methylphenyl)urea] | Active | –
10 | 90.4 | Cc1ccc(NC(=O)N(CCC(C)CC(C)(C)C)CCC(C)CC(C)(C)C)c(C)c1 (stereo not drawn) [1,1-di-(3,5,5-trimethylhexyl)-3-(2,4-dimethylphenyl)urea] | Active | –
11 | 88.6 | CCCCCCCCN(CCCCCCCC)C(=O)Nc1ccc(C)cc1C [1,1-Di-(n-octyl)-3-(2,4-dimethylphenyl)urea] | Active | –

Row | SMILES | % Inhibition [2] [%] | Result (inhibition of cholesterol absorption: lowering of either serum cholesterol or liver cholesterol relative to control rats) [1] | Result (inhibition of cholesterol absorption: increase in excreted 14C-neutral sterol and decrease in excreted 14C-acidic sterol) [3]
12 | CCCCN(CCCC)C(=O)Nc1cc(Cl)cc(Cl)c1 [1,1-Di-(n-butyl)-3-(3,5-dichlorophenyl)urea] | 79.3 | Active | –
